Here are results for ten compounds from PubChem BioAssay (NCI).

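These data come from cells grown in 96-well plates and exposed to compound for 48 hours at five concentrations. GI50: concentration for 50% inhibition of growth. TGI is the concentration that stops growth completely.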 Bounds are passed on as bounds.

Holding throughout (test): growth of human tumour cells (NCI), 48 h
The test system of test [1] is DU-145 prostate.
Test [2] concerns SF-268 CNS.
Test [3] deals with OVCAR-5 ovarian.
Test [4] deals with T-47D breast.
The test system of test [5] is LOX IMVI melanoma.
Test [6] relates to COLO 205 colon.
Test [7] deals with NCI-H23 lung.
Test [8] concerns UO-31 renal.
Test [9] has as its system SR leukemia.
In test [10] the test system is HL-60(TB) leukemia.

As to `CCCNc1nc(-c2ccc(OC)cc2)nc2ccccc12`, the GI50 in [1] is 14.3 µM; in [2], 16.3 µM; in [3], 16.4 µM; in [4], 31.4 µM; in test [5] it was 18.4 µM; in test [6], 19.9 µM. Moreover, the GI50 in [7] is 18 µM; in [8], 19.1 µM; in test [9], 13.8 µM. Moreover, the TGI in test [1] is 32.2 µM; in [2], 38.8 µM; in [3], 43 µM; in test [4] it was > 100 µM; in test [5], 37.5 µM; in test [6] it was > 100 µM. In addition, the TGI in test [7] was 45.9 µM; in [8], > 100 µM; in test [9], > 100 µM.
Consider `CCOC(=O)C(=Cc1ccccc1Br)C(=O)OCC`, for which the TGI in test [1] was determined as 2.68 µM; in [2], 29.1 µM; in test [10], 4 µM; in test [3], 62.5 µM; in test [6] it was 6.77 µM; in [7], 7.79 µM. This compound also yielded a TGI in test [9] of 0.723 µM.
With `CC(=O)Nc1ccc(C(=O)N[C@@H]2C(=O)N3[C@@H]2SC(C)(C)[C@@H]3C(=O)O)cn1`, the TGI in test [1], in test [2], in test [10], in test [3], in [4] and in test [5] was > 100 µM throughout. Besides, the TGI in test [6], in test [7] and in [8] was > 100 µM throughout.
As to `Cc1ccc(Cl)cc1Nc1nc(C(F)(F)F)ccc1C(=O)Oc1ccc(Cl)cc1`, the GI50 in [1] is 7.73 µM; in [2] it was 14 µM; in test [3], 10.5 µM; in [4], 6.53 µM; in [5], 5.21 µM; in test [6], 9.81 µM. The values for the GI50 in test [7] and in test [8] were 11.7 µM and 16 µM, respectively. Further, the TGI in test [1] is 24.8 µM; in test [2], 38.7 µM; in [3] it was 27.5 µM; in [4], 42.2 µM; in test [5] it was 21.9 µM; in test [6], > 100 µM. Further, the TGI in [7] came to 27.8 µM; in [8], 41.8 µM.
Take `Cc1cc(S(N)(=O)=O)c(S/C(=N\NS(=O)(=O)c2ccc(Cl)cc2)c2ccc(Cl)cc2)cc1Cl`: the GI50 is > 100 µM in test [1]; > 100 µM in [2]; 40.6 µM in [10]; > 100 µM in test [3]; > 100 µM in test [5]; 85.2 µM in test [6]. Also, the GI50 in test [7] was 44.2 µM; in [8], > 100 µM; in [9], 29.1 µM. Besides, the TGI in test [1], in test [2], in [10], in test [3], in [5] and in test [6] was > 100 µM throughout. For the same compound, the TGI in test [7], in test [8] and in test [9] was > 100 µM each time.
Turning to `Cc1nc2cc(O)c(O)cc2cc1Oc1ccc(NC(=O)Nc2ccc(Cl)c(Cl)c2)cc1`, the GI50 in test [1] is 7.26 µM; in test [2], 8.45 µM; in [10] it was 9.02 µM; in test [3], 11.6 µM; in test [4] it was 11.6 µM; in test [6], 10.3 µM. For the same compound, the GI50 in test [7] is 6.97 µM; in test [8], 6.97 µM; in test [9] it was 1.56 µM. In addition, the TGI in [1] was 25.2 µM; in test [2], > 32.5 µM; in [10], 22.4 µM; in [3], 29.3 µM; in test [4], > 32.5 µM; in [6], > 32.5 µM. Further, the TGI in [7] was found to be 19.6 µM; in [8] it was 14.9 µM; in test [9], 12.3 µM.
`NS(=O)(=O)c1ccc(-n2nc(-c3ccc(Cl)cc3)cc2C2=CC(=O)C=CC2=O)cc1`: the GI50 in [1] was 23.7 µM; in [2], 24.6 µM; in test [10], 34 µM; in test [3] it was 19.5 µM; in test [7] it was 18 µM; in [8], 41.7 µM. For the same compound, the GI50 in [9] is 26.7 µM. The TGI in [1] is 87.5 µM; in test [2] it was 50.4 µM; in test [10] it was > 100 µM; in test [3], 46.1 µM; in test [7], 42.1 µM; in test [8], > 100 µM. The TGI in test [9] was > 100 µM.
With `CCOC1NC(=O)Oc2ccccc21` (configuration not stated), the TGI in test [1], in test [2], in test [10], in [3], in test [5] and in test [6] was > 100 µM throughout. Moreover, the TGI in test [7], in test [8] and in test [9] was > 100 µM in each case.
On to `COc1ccc2c(CNCCCCO)cc3cc4c(cc3c2c1)OCO4`, for which the GI50 in [1] is 1.33 µM; in test [2], 0.151 µM; in test [3] it was 2.72 µM; in test [4] it was 3.71 µM; in test [5] it was 1.25 µM; in [6], 1.36 µM. The GI50 is 2.24 µM in [7] and 0.21 µM in [8]. The TGI in test [1] is 7.09 µM; in test [2], 1.15 µM; in test [3], 8.95 µM; in [4] it was > 46.7 µM; in test [5] it was 5.37 µM; in test [6], 4.41 µM. For the same compound, the TGI in test [7] came out at 6.43 µM; in [8] it was 4.12 µM.
As to `CC1=C(C(=O)Nc2ccc(F)c(Cl)c2)C(c2cccc(Cl)c2)NC(=O)N1` (configuration not stated), the GI50 was 20.6 µM in test [1]; 17.2 µM in [2]; 23 µM in test [3]; 15.4 µM in test [4]; 16.9 µM in [5]; 13.7 µM in test [6]. Besides, the GI50 in test [7] is 16.8 µM; in test [8] it was 16.1 µM. Besides, the TGI in [1] is 55.8 µM; in test [2] it was 39.4 µM; in test [10], 0.156 µM; in test [3] it was 45.7 µM; in [4] it was 53.1 µM; in test [5], 31.6 µM. Moreover, the TGI in [6] is 27.8 µM; in test [7], 31.9 µM; in test [8], 38.1 µM.
